The results in this text go back to ChEMBL document CHEMBL4507291 (2021).

The target of series [1] is Sigma non-opioid intracellular receptor 1 (Homo sapiens, UniProt Q99720). Description: GPCRScan assay: inhibition of Sigma 1. Further details: radioligand conc. used [nm] 4.0 – 5.0, parental cells HEKT.
The target of series [2] is Prostaglandin G/H synthase 1 (Homo sapiens) (UniProt P23219). The series can be described thus: Inhibition of Cyclooxygenase COX-1 at compound concentration of 10.0 uM in the Eurofins-Panlabs enzyme assay (Eurofins_assay_116020). To be noted: Compound concentration 10.0 uM.
For series [3], the target named is MAO-A (amine oxidase [flavin-containing] A) (Homo sapiens, UniProt P21397). The series can be described thus: Inhibition of Monoamine Oxidase MAO-A at compound concentration of 10.0 uM in the Eurofins-Panlabs enzyme assay (Eurofins_assay_140010). On the set-up: substrate with concentration 50 uM Kynuramine, incubation time 60 min, incubation temperature 37 C. Conditions: recombinant human MAO-A expressed in insect Hi5 cells, probe kynuramine (50 uM), compound concentration 10 uM; call rule not given here.

The test system of series [4] is Epidermal growth factor receptor (Homo sapiens), P00533 [L858R,T790M]. Description: EGFR (ErbB1) T790M L858R Kinase screen. To be noted: Compound concentration 1.0 uM.
Series [5] deals with LIM domain kinase 2 (Homo sapiens) (UniProt P53671). The series can be described thus: LIMK2 Kinase screen. To be noted: Compound concentration 1.0 uM.
For series [6], the target named is Mitogen-activated protein kinase 10 (Homo sapiens) (UniProt P53779). The series can be described thus: MAPK10 (JNK3) Kinase screen. To be noted: Compound concentration 1.0 uM.
The target in series [7] is Maternal embryonic leucine zipper kinase (Homo sapiens) (UniProt Q14680). The series can be described thus: MELK Kinase screen. Conditions: Compound concentration 1.0 uM.
The target in series [8] is Myosin light chain kinase 2, skeletal/cardiac muscle (Homo sapiens) (UniProt Q9H1R3). Description: MLCK (MLCK2) Kinase screen. Conditions: Compound concentration 1.0 uM.
In series [9] the target is T1, Serine/threonine-protein kinase Nek1 (Homo sapiens) (UniProt Q96PY6).
T1 sequence (whole entry): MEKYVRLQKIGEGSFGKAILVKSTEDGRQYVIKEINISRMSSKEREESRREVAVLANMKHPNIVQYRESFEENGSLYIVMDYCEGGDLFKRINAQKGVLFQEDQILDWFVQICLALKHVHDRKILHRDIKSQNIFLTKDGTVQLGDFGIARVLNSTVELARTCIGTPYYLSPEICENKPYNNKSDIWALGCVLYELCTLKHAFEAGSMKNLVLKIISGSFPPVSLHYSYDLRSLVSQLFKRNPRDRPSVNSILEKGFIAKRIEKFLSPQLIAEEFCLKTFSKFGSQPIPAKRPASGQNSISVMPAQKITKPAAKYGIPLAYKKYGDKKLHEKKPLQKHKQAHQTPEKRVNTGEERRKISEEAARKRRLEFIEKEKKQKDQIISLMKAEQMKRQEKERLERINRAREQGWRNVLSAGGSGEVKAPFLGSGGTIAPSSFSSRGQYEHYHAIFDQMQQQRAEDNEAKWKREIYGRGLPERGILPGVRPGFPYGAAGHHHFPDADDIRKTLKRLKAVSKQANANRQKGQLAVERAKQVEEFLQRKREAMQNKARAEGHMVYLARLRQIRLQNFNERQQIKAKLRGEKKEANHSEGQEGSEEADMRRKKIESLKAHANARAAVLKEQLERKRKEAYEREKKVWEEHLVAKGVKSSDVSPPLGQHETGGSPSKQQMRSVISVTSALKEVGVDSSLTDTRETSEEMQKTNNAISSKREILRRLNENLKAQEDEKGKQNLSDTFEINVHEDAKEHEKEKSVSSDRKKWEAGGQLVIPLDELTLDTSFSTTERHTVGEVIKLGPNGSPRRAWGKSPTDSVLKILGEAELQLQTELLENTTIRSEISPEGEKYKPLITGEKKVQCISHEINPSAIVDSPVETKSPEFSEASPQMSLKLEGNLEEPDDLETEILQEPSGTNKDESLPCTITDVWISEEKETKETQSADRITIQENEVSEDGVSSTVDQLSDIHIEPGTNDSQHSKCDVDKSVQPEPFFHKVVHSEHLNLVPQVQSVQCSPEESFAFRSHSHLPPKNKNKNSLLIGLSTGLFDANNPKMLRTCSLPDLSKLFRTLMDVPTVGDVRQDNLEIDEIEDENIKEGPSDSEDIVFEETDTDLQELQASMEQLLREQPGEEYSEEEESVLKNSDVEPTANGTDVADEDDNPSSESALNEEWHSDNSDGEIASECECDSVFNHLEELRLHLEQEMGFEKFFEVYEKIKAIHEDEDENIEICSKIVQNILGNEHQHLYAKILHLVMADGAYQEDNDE
The series can be described thus: NEK1 Kinase screen. Conditions: Compound concentration 1.0 uM.

Series [10] deals with BDNF/NT-3 growth factors receptor (Homo sapiens) (UniProt Q16620). The series can be described thus: NTRK2 (TRKB) Kinase screen. To be noted: Compound concentration 1.0 uM.
Series [11] has as its target Serine/threonine-protein kinase PLK2 (Homo sapiens) (UniProt Q9NYY3). The series can be described thus: PLK2 Kinase screen. Conditions: Compound concentration 1.0 uM.
Series [12] addresses Rho-associated protein kinase 1 (Homo sapiens) (UniProt Q13464). Description: ROCK1 Kinase screen. To be noted: Compound concentration 1.0 uM.
The target in series [13] is Ribosomal protein S6 kinase alpha-6 (Homo sapiens) (UniProt Q9UK32). Description: RPS6KA6 (RSK4) Kinase screen. Conditions: Compound concentration 1.0 uM.
The target of series [14] is T2, Serine/threonine-protein kinase 4 (Homo sapiens) (UniProt Q13043).
T2 sequence (whole entry): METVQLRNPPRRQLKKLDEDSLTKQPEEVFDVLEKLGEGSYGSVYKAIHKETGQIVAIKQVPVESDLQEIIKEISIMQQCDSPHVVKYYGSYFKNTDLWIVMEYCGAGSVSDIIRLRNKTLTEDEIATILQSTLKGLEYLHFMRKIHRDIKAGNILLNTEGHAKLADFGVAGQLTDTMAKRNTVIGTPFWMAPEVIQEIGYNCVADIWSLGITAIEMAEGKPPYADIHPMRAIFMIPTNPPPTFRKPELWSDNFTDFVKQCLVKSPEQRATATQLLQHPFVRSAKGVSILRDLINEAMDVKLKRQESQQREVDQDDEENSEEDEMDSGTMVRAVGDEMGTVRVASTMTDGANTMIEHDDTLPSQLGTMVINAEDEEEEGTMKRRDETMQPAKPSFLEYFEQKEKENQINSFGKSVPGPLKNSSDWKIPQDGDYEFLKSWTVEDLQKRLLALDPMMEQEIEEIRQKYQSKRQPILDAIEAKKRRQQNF
Description: STK4 (MST1) Kinase screen. To be noted: Compound concentration 1.0 uM.

The target of series [15] is Glutamate receptor 2 (Homo sapiens) (UniProt P42262). Conditions: Rattus norvegicus; Compound concentration 10.0 uM.
Series [16] has as its target Type-1 angiotensin II receptor (Homo sapiens) (UniProt P30556). Conditions: Compound concentration 10.0 uM.

Sequence of MAO-A (amine oxidase [flavin-containing] A) (P21397 whole entry): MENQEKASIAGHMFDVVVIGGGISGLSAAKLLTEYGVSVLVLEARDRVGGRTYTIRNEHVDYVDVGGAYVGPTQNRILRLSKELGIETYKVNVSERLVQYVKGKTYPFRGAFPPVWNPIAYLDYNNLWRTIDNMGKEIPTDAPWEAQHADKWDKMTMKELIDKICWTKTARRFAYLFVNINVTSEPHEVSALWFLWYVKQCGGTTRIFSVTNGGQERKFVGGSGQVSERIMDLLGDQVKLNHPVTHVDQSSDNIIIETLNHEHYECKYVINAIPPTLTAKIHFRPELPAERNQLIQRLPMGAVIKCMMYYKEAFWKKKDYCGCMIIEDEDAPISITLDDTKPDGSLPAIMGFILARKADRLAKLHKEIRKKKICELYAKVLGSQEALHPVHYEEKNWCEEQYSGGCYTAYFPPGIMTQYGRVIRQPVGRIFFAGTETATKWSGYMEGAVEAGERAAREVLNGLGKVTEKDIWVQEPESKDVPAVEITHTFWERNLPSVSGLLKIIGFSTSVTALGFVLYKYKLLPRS
Sequence of Myosin light chain kinase 2, skeletal/cardiac muscle (Homo sapiens) (Q9H1R3 whole entry): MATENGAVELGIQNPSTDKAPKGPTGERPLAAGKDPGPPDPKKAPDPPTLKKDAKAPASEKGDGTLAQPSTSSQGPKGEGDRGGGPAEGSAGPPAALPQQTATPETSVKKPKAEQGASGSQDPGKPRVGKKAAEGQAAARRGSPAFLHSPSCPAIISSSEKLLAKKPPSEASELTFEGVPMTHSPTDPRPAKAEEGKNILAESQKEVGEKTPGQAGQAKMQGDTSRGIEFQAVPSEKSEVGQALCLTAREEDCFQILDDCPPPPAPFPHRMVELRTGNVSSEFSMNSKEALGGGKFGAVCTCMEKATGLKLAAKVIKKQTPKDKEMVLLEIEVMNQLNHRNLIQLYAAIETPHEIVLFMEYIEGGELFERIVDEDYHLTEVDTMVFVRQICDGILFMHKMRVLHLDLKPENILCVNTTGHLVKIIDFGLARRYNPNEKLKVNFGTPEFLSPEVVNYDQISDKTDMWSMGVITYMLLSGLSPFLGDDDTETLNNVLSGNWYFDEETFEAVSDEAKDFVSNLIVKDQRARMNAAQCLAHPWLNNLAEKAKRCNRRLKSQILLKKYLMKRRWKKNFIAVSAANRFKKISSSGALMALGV
Sequence of BDNF/NT-3 growth factors receptor (Homo sapiens) (Q16620 32-822 limits assumed): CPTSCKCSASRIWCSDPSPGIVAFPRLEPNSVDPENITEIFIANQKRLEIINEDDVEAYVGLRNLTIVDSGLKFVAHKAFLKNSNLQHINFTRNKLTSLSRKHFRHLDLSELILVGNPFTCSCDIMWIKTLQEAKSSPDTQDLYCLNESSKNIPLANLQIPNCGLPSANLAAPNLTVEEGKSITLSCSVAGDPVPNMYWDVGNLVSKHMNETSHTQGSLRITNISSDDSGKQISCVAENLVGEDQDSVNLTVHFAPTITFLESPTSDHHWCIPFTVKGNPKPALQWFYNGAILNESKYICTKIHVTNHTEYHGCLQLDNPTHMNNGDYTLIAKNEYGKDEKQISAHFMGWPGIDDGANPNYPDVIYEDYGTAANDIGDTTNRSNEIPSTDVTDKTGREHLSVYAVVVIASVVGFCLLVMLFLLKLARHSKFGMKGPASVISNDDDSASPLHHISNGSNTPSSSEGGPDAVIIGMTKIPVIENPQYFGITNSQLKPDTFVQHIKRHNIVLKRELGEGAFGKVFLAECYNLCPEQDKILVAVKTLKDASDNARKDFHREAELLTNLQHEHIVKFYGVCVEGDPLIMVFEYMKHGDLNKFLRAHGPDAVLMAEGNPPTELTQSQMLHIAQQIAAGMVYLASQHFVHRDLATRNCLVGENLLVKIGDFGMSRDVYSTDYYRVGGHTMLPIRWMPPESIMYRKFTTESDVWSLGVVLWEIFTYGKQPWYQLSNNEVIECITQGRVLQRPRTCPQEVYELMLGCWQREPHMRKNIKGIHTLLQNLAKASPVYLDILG
Sequence of Type-1 angiotensin II receptor (Homo sapiens) (P30556 whole entry): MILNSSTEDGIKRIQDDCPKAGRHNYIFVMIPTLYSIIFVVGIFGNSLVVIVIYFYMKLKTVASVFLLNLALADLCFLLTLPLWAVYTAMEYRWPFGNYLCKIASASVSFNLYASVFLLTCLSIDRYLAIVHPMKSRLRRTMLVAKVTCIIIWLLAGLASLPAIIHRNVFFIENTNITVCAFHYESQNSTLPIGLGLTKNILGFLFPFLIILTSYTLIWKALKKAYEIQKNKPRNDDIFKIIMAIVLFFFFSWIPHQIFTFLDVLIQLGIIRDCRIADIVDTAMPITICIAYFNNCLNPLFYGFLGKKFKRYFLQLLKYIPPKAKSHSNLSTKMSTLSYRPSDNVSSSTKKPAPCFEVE
Sequence of Rho-associated protein kinase 1 (Homo sapiens) (Q13464 2-1354 limits assumed): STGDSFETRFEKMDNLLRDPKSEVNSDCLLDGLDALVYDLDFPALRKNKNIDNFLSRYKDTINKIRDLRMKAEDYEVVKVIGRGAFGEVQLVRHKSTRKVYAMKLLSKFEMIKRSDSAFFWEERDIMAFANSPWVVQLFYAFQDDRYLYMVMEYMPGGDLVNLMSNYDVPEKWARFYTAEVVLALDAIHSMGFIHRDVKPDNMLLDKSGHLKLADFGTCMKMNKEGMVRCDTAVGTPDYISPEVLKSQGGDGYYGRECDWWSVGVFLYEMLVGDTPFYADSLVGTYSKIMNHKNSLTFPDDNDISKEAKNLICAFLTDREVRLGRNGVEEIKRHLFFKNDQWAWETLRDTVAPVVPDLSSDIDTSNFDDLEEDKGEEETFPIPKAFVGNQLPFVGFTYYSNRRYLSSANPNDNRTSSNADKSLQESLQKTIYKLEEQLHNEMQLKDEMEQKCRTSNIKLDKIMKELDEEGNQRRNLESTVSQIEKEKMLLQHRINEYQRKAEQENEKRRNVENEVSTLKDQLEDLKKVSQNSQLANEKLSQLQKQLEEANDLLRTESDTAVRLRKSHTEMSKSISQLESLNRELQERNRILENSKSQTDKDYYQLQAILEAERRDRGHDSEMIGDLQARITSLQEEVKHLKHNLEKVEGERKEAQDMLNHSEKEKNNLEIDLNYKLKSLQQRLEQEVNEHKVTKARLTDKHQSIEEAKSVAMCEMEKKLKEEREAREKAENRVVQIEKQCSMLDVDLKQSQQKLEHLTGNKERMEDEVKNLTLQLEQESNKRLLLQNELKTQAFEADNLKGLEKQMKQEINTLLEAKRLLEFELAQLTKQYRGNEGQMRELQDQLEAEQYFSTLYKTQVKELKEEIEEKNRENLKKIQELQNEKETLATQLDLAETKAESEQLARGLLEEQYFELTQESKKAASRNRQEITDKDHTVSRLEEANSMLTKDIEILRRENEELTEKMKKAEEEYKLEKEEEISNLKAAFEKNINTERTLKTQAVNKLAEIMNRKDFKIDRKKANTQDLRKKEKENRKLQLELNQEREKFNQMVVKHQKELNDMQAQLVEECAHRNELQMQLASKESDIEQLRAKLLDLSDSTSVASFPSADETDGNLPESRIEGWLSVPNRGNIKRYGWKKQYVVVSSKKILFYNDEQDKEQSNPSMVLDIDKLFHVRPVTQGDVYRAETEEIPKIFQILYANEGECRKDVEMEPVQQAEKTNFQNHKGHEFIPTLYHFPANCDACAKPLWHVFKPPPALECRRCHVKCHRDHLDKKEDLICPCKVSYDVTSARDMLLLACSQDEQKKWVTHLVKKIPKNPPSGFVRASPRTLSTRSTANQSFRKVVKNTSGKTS
Sequence of Epidermal growth factor receptor (Homo sapiens), P00533 [L858R,T790M] (P00533 whole entry T790M/L858R, looked up, the tested form may be a part): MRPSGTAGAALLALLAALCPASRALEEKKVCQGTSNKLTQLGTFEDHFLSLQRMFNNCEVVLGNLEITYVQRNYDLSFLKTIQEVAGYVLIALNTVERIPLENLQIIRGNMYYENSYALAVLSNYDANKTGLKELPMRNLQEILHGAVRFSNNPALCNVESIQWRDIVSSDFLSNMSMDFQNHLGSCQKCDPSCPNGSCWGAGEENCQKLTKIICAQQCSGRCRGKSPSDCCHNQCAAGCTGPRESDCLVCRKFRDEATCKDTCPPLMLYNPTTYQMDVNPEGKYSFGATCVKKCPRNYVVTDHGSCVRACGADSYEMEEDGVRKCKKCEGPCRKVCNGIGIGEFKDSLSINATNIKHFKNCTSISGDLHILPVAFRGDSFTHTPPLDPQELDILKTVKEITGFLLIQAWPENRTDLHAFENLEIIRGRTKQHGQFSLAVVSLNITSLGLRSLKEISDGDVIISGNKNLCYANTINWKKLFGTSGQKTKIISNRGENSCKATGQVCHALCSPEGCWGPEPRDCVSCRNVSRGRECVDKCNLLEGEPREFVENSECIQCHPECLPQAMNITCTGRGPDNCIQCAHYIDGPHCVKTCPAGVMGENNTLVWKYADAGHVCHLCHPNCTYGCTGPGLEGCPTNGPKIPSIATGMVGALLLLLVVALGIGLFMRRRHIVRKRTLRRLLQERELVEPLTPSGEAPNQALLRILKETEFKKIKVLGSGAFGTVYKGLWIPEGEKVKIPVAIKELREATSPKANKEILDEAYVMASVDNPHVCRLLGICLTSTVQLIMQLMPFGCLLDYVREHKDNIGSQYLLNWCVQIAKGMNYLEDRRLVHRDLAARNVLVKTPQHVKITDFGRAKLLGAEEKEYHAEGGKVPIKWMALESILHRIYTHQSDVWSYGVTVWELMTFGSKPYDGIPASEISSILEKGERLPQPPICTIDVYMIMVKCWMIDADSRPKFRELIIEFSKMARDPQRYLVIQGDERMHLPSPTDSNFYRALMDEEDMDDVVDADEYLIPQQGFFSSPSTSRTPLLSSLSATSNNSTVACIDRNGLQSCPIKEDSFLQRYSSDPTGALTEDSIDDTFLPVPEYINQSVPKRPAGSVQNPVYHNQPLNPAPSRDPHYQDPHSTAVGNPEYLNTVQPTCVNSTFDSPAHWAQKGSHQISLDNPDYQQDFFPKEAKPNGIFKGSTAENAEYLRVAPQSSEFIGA
Sequence of Sigma non-opioid intracellular receptor 1 (Q99720 whole entry): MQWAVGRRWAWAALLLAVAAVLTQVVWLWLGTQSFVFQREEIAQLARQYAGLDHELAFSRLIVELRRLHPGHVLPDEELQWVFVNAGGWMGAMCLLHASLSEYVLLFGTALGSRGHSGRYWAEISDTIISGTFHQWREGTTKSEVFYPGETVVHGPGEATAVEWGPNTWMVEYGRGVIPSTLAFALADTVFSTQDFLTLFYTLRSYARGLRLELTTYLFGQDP

As a reminder, the Ki is the dissociation constant of the complex between target and ligand, obtained from inhibition or displacement. For the molecule `C[C@@H]1CN(c2cc(-c3nn(C)c4ccc(OC5(C)CC5)cc34)ncn2)C[C@H](C)O1` [MLi-2-NC], in series [1], the inhibition constant Ki was found to be 1.59 µM.
What is called inhibition is the change of the read-out against control, counted positive when it falls. In the case of `C[C@@H]1CN(c2cc(-c3n[nH]c4ccc(OC5(C)CC5)cc34)ncn2)C[C@H](C)O1` [MLi-2], the inhibition in series [2] is 9%; in [4], 2.37%; in [5] it was 0.642%; in series [6], 13.6%; in [7] it was 5.44%; in series [8] it was 1.73%. For the same molecule, the inhibition in [9] was 3.48%; in [10], 7.02%; in [11], 12.7%; in [12], -0.899%; in [13], 3.23%; in [14], 21.8%. Also, the figures for the inhibition in series [15] and in series [16] were -2% and 8%, respectively. Also, the inhibition at 60 min, 10 µM in series [3] is given as 2% (not active).
